According to patent EP1043979B1, “COMPOSITIONS FOR THE TRANSDERMAL AND DERMAL ADMINISTRATION OF BIOLOGICALLY ACTIVE AGENTS” (PULITZER ITALIANA S.r.l., priority 1997, dated 1999):

Test: In vitro transdermal flux of nitroglycerin from TTS patches, Franz diffusion cells, HPLC of receiving medium
Type: in vitro ADME, human
Description: The transdermal delivery devices employed in this example and in the following ones were produced according to the following procedure. A matrix layer containing the active substance, the adhesive and, when present, the permeation enhancer and the absorption assistant was obtained by uniformly spreading a solution of the components, with the proper concentration, viscosity and quantitative composition, on the silanised or fluorinated surface of a polyester protective layer. After evaporating the solvent at 70-80°C for 15-20 min. a final layer of a homogeneous thickness was obtained. weighing about 10 mg/cm^2 and having the desired composition. The composition had been preliminarily fixed taking into account the amount of solvent to be removed. During the above operation the adhesive employed underwent the required cross-linking reaction. […]
On the transdermal devices thus produced in vitro release tests were carried out, employing methods well known to this aim (Merrit e. Cooper, J. Controlled Release, 1984, 1, 161), that have been further developed more recently (Reifenrath et al., J. Pharm. Sci., 80, 1991, 526). […] The tested patches were applied to the exposed side of the skin, and the transdermal flux was measured by analysing (by HPLC) the receiving medium. […]

Molecule | activity as enhancer (N-(2-hydroxyethyl)acetamide alone, 3-7% in nitroglycerin TTS (Table 2)) | transdermal permeation
CC(=O)NCCO [N-(2-hydroxyethyl)acetamide] | does not possess any significant activity as enhancer | –
sorbitan monooleate | – | relative reduction of the transdermal permeation
